Experimental data as given in ChEMBL document CHEMBL1140541, “Potent 2'-aminoanilide inhibitors of cFMS as potential anti-inflammatory agents” (Bioorg Med Chem Lett, 2007).

Columns and labels:
[1] = molecular target: T1, Macrophage colony-stimulating factor 1 receptor (Homo sapiens, UniProt P07333); assay: Inhibition of ATP-induced autophosphorylation of cFMS tyrosine kinase
[2] = molecular target: T1, Macrophage colony-stimulating factor 1 receptor; assay: Inhibition of ATP-induced autophosphorylation of cFMS tyrosine kinase in HEK 293 cells; format: cell-based, HEK293
[3] = Metabolic stability in human liver microsomes after 10 mins; format: ADME, Microsome; details: read-out: Stability

T1 sequence (P07333 whole entry): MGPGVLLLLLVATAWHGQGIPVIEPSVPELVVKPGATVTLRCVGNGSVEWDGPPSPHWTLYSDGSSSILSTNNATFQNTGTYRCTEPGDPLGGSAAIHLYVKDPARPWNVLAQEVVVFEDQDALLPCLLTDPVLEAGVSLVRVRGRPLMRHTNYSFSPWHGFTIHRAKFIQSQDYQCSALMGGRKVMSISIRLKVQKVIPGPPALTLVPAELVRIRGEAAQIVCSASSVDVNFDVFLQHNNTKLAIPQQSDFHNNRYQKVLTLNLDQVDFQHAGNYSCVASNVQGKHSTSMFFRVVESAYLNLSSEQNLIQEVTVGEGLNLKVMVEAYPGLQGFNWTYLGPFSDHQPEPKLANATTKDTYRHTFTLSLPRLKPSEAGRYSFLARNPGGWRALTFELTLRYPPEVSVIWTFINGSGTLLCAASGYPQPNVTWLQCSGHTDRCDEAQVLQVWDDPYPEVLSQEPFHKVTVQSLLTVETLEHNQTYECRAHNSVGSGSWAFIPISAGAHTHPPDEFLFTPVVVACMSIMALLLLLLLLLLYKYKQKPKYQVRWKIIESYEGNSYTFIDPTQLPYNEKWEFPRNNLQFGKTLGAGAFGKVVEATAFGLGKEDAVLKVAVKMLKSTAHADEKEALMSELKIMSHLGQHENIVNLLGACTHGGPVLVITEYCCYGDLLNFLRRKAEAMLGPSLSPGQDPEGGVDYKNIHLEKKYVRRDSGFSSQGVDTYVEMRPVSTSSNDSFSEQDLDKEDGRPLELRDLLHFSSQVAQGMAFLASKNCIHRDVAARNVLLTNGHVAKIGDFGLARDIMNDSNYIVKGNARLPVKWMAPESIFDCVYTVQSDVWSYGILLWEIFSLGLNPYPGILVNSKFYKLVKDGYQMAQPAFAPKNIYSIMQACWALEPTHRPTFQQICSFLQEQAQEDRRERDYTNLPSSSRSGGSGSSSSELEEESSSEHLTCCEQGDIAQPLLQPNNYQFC

CCCN(CCC)c1ccccc1NC(=O)c1ccc([N+](=O)[O-])o1
IC50 [1]: > 10000 nM

O=C(Nc1ccccc1Nc1ccccc1)c1ccc([N+](=O)[O-])o1
IC50 [1]: > 10000 nM

O=C(Nc1ccccc1N1CCC(O)CC1)c1ccc([N+](=O)[O-])o1
IC50 [2]: 370 nM | IC50 [1]: 140 nM

O=C(Nc1ccccc1N1CCC1)c1ccc([N+](=O)[O-])o1
IC50 [1]: > 10000 nM

O=C(Nc1ccccc1N1CCC(CO)CC1)c1ccc([N+](=O)[O-])o1
IC50 [2]: 1400 nM | IC50 [1]: 130 nM

O=C(O)c1ccc(C(=O)Nc2ccccc2N2CCCCC2)o1
IC50 [1]: > 10000 nM

O=C(Nc1ccccc1N1CCCCC1)c1ccc(C(F)(F)F)o1
IC50 [1]: > 10000 nM

N#Cc1ccc(C(=O)Nc2ccccc2N2CCCCC2)o1
IC50 [2]: 370 nM | IC50 [1]: 36 nM

N#Cc1ccc(C(=O)Nc2cc(O)ccc2N2CCCCC2)o1
IC50 [2]: 2700 nM | IC50 [1]: 17 nM

COc1ccc(N2CCCCC2)c(NC(=O)c2ccc(C#N)o2)c1
IC50 [2]: 960 nM | IC50 [1]: 90 nM

N#Cc1ccc(C(=O)Nc2cc(CN)ccc2N2CCCCC2)o1
IC50 [2]: 3100 nM | IC50 [1]: 200 nM

N#Cc1ccc(C(=O)Nc2cc(C=O)ccc2N2CCCCC2)o1
IC50 [2]: 330 nM | IC50 [1]: 37 nM

N#Cc1ccc(C(=O)Nc2cc(C(=O)O)ccc2N2CCCCC2)o1
IC50 [2]: > 2000 nM | IC50 [1]: > 2000 nM

N#Cc1ccc(C(=O)Nc2cc(N3CCCCC3)ccc2N2CCCCC2)o1
IC50 [2]: 76 nM | IC50 [1]: 17 nM

O=C(Nc1ccccc1N1CCCC1)c1ccc([N+](=O)[O-])o1
IC50 [1]: 1900 nM

CS(=O)(=O)NCc1ccc(N2CCCCC2)c(NC(=O)c2ccc(C#N)o2)c1
IC50 [2]: 310 nM | IC50 [1]: 37 nM

O=C(Nc1ccccc1N1C=CC=CC=C1)c1ccc([N+](=O)[O-])o1
IC50 [2]: 2000 nM | IC50 [1]: 260 nM

CC1CCCCN1c1ccccc1NC(=O)c1ccc([N+](=O)[O-])o1 (stereo unspecified)
IC50 [1]: 720 nM

O=C(Nc1ccccc1N1CCCCC1)c1ccco1
IC50 [1]: > 10000 nM

O=C(Nc1ccccc1N1CCCCC1)c1ccc(Nc2ccccc2)o1
IC50 [1]: > 10000 nM

O=C(Nc1ccccc1N1CCCCC1)c1ccc(-c2ccccc2)o1
IC50 [1]: > 10000 nM

O=C(Nc1ccccc1N1CCCCC1)c1ccc(Br)o1
IC50 [1]: 4400 nM

O=C(Nc1ccccc1N1CCCCC1)c1ccc(Cl)o1
IC50 [1]: 1900 nM

O=C(Nc1ccccc1N1CCC(CCO)CC1)c1ccc([N+](=O)[O-])o1
IC50 [2]: 230 nM | IC50 [1]: 43 nM

O=C(Nc1ccccc1N1CCOCC1)c1ccc([N+](=O)[O-])o1
IC50 [1]: 1100 nM

O=C(Nc1ccccc1N1CCNCC1)c1ccc([N+](=O)[O-])o1
IC50 [1]: > 10000 nM

CCCN(CC)c1ccccc1NC(=O)c1ccc([N+](=O)[O-])o1
IC50 [1]: > 10000 nM

CC1CCN(c2ccccc2NC(=O)c2ccc([N+](=O)[O-])o2)CC1
IC50 [2]: 300 nM | remaining at 10 min [3]: 100% | IC50 [1]: 78 nM

N#Cc1ccc(C(=O)Nc2cc(COCC(O)CO)ccc2N2CCCCC2)o1 (stereo unspecified)
IC50 [2]: 170 nM | IC50 [1]: 19 nM

O=C(Nc1ccccc1N1CCCCC1)c1cc([N+](=O)[O-])c[nH]1
IC50 [2]: 180 nM | IC50 [1]: 47 nM

N#Cc1c[nH]c(C(=O)Nc2ccccc2N2CCCCC2)c1
IC50 [2]: 150 nM | IC50 [1]: 47 nM

O=C(Nc1ccccc1N1CCC(CO)C1)c1ccc([N+](=O)[O-])o1 (stereo unspecified)
IC50 [1]: > 10000 nM

O=Cc1ccc(C(=O)Nc2ccccc2N2CCCCC2)o1
IC50 [1]: 1100 nM

O=C(Nc1ccccc1N1CCC(O)C1)c1ccc([N+](=O)[O-])o1 (stereo unspecified)
IC50 [1]: > 10000 nM

N#Cc1ccc(C(=O)Nc2cc(CO)ccc2N2CCCCC2)o1
IC50 [2]: 190 nM | remaining at 10 min [3]: 25% | IC50 [1]: 25 nM

N#Cc1ccc(N2CCCCC2)c(NC(=O)c2ccc(C#N)o2)c1
IC50 [2]: 750 nM | IC50 [1]: 120 nM

O=C(Nc1ccccc1N1CCN(c2ccccc2)CC1)c1ccc([N+](=O)[O-])o1
IC50 [1]: > 10000 nM

NC(=O)c1ccc(C(=O)Nc2ccccc2N2CCCCC2)o1
IC50 [1]: > 10000 nM

N#Cc1ccc(C(=O)Nc2cc(CN=C(N)N)ccc2N2CCCCC2)o1
IC50 [2]: 2600 nM | IC50 [1]: 34 nM

CC1CCN(c2ccc(CO)cc2NC(=O)c2ccc(C#N)o2)CC1
remaining at 10 min [3]: 83%

Nc1ccc(C(=O)Nc2ccccc2N2CCCCC2)o1
IC50 [1]: > 10000 nM

CC1CC(C)CN(c2ccccc2NC(=O)c2ccc([N+](=O)[O-])o2)C1 (stereo unspecified)
IC50 [1]: 5300 nM

O=C(Nc1ccccc1N1CCCCC1)c1ccc([N+](=O)[O-])o1
remaining at 10 min [3]: 41%

CC1CCCN(c2ccccc2NC(=O)c2ccc([N+](=O)[O-])o2)C1 (stereo unspecified)
IC50 [2]: 2200 nM | IC50 [1]: 380 nM
